Reference: US9119886B2, “Immunoconjugates for the treatment of tumours” (MolMed SpA, priority 2002, dated 2015)

Key:
B16F1 cells = assay: 48 hour in vitro cytotoxicity assay on cultured B16F1 cells; type: cell-based, mouse
From the text: To assess whether the synergism depends directly on cytotoxicity against tumor cells we measured the effect of each compound, alone or in combination, on cultured B16F1 cells.

B16F1 melanoma = assay: anti-tumor activity (tumor growth) in B16F1 melanoma-bearing mice; type: in vivo, C57BL/6 mice
Procedure: C57BL/6 mice (Charles River Laboratories, Calco, Italy) weighing 16-18 g were challenged with subcutaneous injection in the left flank of 5×10^4 RMA-T or B16F1 living cells; 4-12 days later, the mice were treated with TNF or NGR-TNF solutions (100 μl) followed 2 hours later by administration of melphalan or doxorubicin solution (100 μl). Unless specified, all drugs were administered intraperitoneally (i.p.). All drugs were diluted with 0.9% sodium chloride, containing 100 μg/ml endotoxin-free human serum albumin (Farma-Biagini, Lucca, Italy), except for doxorubicin, which was diluted with 0.9% sodium chloride alone. Tumor growth was monitored daily by measuring the tumors with calipers as previously described (20). Animals were sacrificed before the tumors reached 1.0-1.5 cm in diameter. Tumor sizes are shown as mean±SE (5 animals/group).
We then investigated whether targeted delivery of low doses of NGR-mTNF to tumor vessles could enhance the anti-tumor activity of chemotherapeutic drugs.

RMA-T lymphoma = assay: anti-tumor activity (tumor growth) in RMA-T lymphoma-bearing mice; type: in vivo, C57BL/6 mice; conditions: RMA-T tumors, treatment at day 10, picogram doses

Molecule	killing of cultured cells (B16F1 cells)	effect on tumor growth, single agent (B16F1 melanoma; melphalan 90 μg, mTNF or NGR-mTNF 0.1 ng i.p.)	dose sufficient to enhance the anti-tumor activity of melphalan and doxorubicin (B16F1 melanoma; systemic administration to mice)	enhancement of therapeutic effect of cisplatinum (RMA-T lymphoma)
N[C@@H](Cc1ccc(N(CCCl)CCCl)cc1)C(=O)O [Melphalan]	Neither melphalan or NGR-mTNF, alone or in combination, killed these cells	unable to effect the growth of tumors		
NGR-TNF: TNF fused with the C-terminus of CNGRCG; human or murine form not specified at the place (Example 15 used NGR-mTNF) (protein) CNGRCGMSTESMIRDVELAEEALPQKMGGFQNSRRCLCLSLFSFLLVAGATTLFCLLNFGVIGPQRDEKFPNGLPLISSMAQTLTLRSSSQNSSDKPVAHVVANHQVEEQLEWLSQRANALLANGMDLKDNQLVVPADGLYLVYSQVLFKGQGCPDYVLLTHTVSRFAISYQEKVNLLSAVKSPCPKDTPEGAELKPWYEPIYLGGVFQLEKGDQLSAEVNLPKYLDFAESGQVYFGVIAL			0.003 to 0.005 µg/kg	sufficient to enhance the therapeutic effect of cisplatinum
